The results in this text go back to patent US20190337924A1, “SUBSTITUTED HYDANTOIN AND THIOHYDANTOIN DERIVATIVES AS ANDROGEN RECEPTOR ANTAGONISTS” (Janssen Pharmaceutica NV, priority 2016, published 2019).

Counter-ions that a name gives are not always drawn. Like-named read-outs stand apart in the source and are kept apart here.

The target of this experiment is T1, wild-type Androgen Receptor (AR-wt) (Homo sapiens, UniProt P10275).
T1 construct: expressed in transfected cells; host or cells: LNCaP
T1 sequence (P10275 1-920): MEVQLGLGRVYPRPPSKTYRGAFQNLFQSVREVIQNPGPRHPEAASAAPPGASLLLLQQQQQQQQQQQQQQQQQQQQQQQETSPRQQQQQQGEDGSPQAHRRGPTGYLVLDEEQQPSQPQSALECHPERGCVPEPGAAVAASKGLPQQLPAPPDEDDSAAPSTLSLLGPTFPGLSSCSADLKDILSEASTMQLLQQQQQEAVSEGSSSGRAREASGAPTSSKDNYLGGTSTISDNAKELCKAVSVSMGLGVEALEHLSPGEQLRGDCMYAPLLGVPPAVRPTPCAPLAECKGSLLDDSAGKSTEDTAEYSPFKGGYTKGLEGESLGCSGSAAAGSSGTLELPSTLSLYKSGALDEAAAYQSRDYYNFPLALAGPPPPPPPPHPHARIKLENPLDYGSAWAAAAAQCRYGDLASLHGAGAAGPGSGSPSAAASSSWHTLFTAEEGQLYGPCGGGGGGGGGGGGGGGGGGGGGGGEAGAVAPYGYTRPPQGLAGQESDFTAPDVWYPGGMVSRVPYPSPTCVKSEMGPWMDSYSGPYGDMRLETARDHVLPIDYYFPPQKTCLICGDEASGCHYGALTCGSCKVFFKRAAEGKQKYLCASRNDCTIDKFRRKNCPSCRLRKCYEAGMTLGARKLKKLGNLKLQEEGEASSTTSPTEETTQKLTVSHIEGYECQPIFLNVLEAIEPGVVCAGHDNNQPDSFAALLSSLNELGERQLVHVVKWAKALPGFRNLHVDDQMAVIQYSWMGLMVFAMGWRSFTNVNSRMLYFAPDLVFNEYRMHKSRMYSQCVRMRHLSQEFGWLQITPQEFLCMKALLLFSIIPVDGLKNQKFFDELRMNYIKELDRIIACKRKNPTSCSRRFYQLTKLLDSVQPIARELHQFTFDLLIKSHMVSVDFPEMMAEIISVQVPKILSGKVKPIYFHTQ
The experiment is described as follows: AR reporter assay, LNCaP-AR-wt ANT (antagonist mode). Particulars: for Emax: read-out: LNCaP-AR-wt ANT MAX % Inh. The experiment is classed as cell-based. From the text: LNCaP AR (cs) and LNCaP F876L luciferase cell lines were generated by transduction of each cell line (description of cell line generation Joseph J D, Lu N, Qian J, Sensintaffar J, Shao G, Brigham D, Moon M, Maneval E C, Chen I, Darimont B, Hager J H. A clinically relevant androgen receptor mutation confers resistance to second-generation antiandrogens enzalutamide and ARN-509. Cancer Discov 2013; 3:1020-1029) with an Androgen Response Element Firefly Luciferase lentiviral construct at an MOI (multiplicity of infection) of 50 following the manufacturer's instructions (Qiagen). A stable pooled-population cell line was generated using puromycin (Life Technologies) selection at 1:10,000 v/v. The protocol below was used for both cell lines and for testing of the compounds of Formula (I) of the present invention.
LNCaP cells were grown to about 80% confluence, media removed and cells rinsed in Hank's balanced salt solution prior to separation from the plate with 0.05% Trypsin EDTA. Cells were lifted and trypsin negated in complete CSS (charcoal stripped serum) culture media. CSS was maintained on cells for 24 h prior to assay, at which time 5,000 cells/[…] were seeded in Greiner 384 well White/White Tissue Culture Treated Plates and incubated for a further 1-2 hours at 37° C., 5% CO2, prior to addition of 10 μL of 4× Test Compounds (compounds described herein) or Assay Controls (all diluted in complete media containing 10% css). A further 10 μL of 4× R-1881 Agonist Challenge (antagonist assay) or Buffer (agonist assay) was then added (all diluted in complete media containing 10% css). Agonist challenge was at 400 pM for WT assay and 600 pM for F876L assay. Plates containing cells and compounds herein were incubated for a further 20-24 hours at 37° C., 5% CO2 before addition of 40 μL/well of Steady-Glo Luciferase Assay System Reagent (Promega#E2520). After 1 h, plates were read for luminescence on a BMG Pherastar.
Agonist challenge: R-1881 (Metribolone)—Agonist
Antagonist control (low control): 5-(5-(4-((1-Methylpiperidin-4-yl)oxy)phenyl)-8-oxo-6-thioxo-5,7-diazaspiro[3.4]octan-7-yl)-3-(trifluoromethyl)picolinonitrile (WO 2011/103202, EXAMPLE 19, Compound 129, CAS #1332390-06-3).
(1−(Sample RLU−Ave Low Control RLU[10 μM Antagonist Control])/(Ave High Control RLU [400 pM R-1881]−Ave Low Control RLU[10 μM Antagonist Control]))*100.
EC/IC50 calculations were achieved utilizing calculated RLU data and data fitting macros. Data were fit using least-squares methods to the following formula: […]
As used herein: • pIC50 is defined as −Log10(IC50 expressed in [Molar]). • pEC50 is defined as −Log10(EC50 expressed in [Molar]). • MAX % Inh is defined as the maximum % inhibition of R1881 control response observed for a compound over the tested concentration range. • MAX % Stim is defined as the maximum % stimulation (agonist response) observed for a compound over the tested concentration range. • LNCaP-AR-wt ANT refers to the reporter assay using LNCaP cells stably transfected with the Androgen Response Element Firefly Luciferase lentiviral construct and wild-type Androgen Receptor (AR-wt) in Antagonist mode. • LNCaP-AR-wt AG refers to the reporter assay using LNCaP cells stably transfected with the Androgen Response Element Firefly Luciferase lentiviral construct and wild-type Androgen Receptor (AR-wt) in Agonist mode. • LNCaP-AR-F876L ANT refers to the reporter assay using LNCaP cells stably transfected with the Androgen Response Element Firefly Luciferase lentiviral construct and F876L mutant Androgen Receptor (AR-F876L) in Antagonist mode. • LNCaP-AR-F876L AG refers to the reporter assay using LNCaP cells stably transfected with the Androgen Response Element Firefly Luciferase lentiviral construct and F876L mutant Androgen Receptor (AR-F876L) in Agonist mode.

The mark [1] stands for this setting: antagonist mode, 400 pM R-1881 challenge, luciferase reporter, -Log10(IC50 in Molar), read-out: LNCaP-AR-wt ANT pIC50 (converted).

Consider `N#Cc1ccc(N2C(=O)C3(CCC3)N(c3ccc(OC4CCNCC4)nc3)C2=S)cc1Cl` [Compound 23, 2-Chloro-4-(8-oxo-5-(6-(piperidin-4-yloxy)pyridin-3-yl)-6-thioxo-5,7-diazaspiro[3.4]octan-7-yl)benzonitrile hydrochloride], for which the IC50 is 67.6 nM and the Emax was 105%.
In the same order, the values of `CC1(C)C(=O)N(c2ccc(C#N)c(Cl)c2)C(=S)N1c1ccc(OC2CCNCC2)nc1` [Compound 9, 2-Chloro-4-(4,4-dimethyl-5-oxo-3-(6-(piperidin-4-yloxy)pyridin-3-yl)-2-thioxoimidazolidin-1-yl)benzonitrile hydrochloride] are 57.5 nM and 102%.
As for `CN1CCC(Oc2ncc(N3C(=S)N(c4ccc(C#N)c(C(F)(F)F)c4)C(=O)C34CCC4)cn2)CC1` [Compound 16, 4-(5-(2-((1-Methylpiperidin-4-yl)oxy)pyrimidin-5-yl)-8-oxo-6-thioxo-5,7-diazaspiro[3.4]octan-7-yl)-2-(trifluoromethyl)benzonitrile], the Emax was determined as 102%. Moreover, under setting [1], the IC50 was 209 nM.
On to `CN1CCC(Oc2ccc(N3C(=S)N(c4ccc(C#N)c(Cl)c4)C(=O)C3(C)C)cn2)CC1` [Compound 10, 2-Chloro-4-(4,4-dimethyl-3-(6-((1-methylpiperidin-4-yl)oxy)pyridin-3-yl)-5-oxo-2-thioxoimidazolidin-1-yl)benzonitrile hydrochloride], for which the IC50 is 63.1 nM and the Emax worked out at 102%.
With `CN1CCC(Oc2ccc(N3C(=S)N(c4ccc(C#N)c(C(F)(F)F)c4)C(=O)C34CCC4)cc2)CC1` [Compound 12, 4-(5-(4-((1-Methylpiperidin-4-yl)oxy)phenyl)-8-oxo-6-thioxo-5,7-diazaspiro[3.4]octan-7-yl)-2-(trifluoromethyl)benzonitrile], the IC50 is 324 nM and the Emax was determined as 104%.
The matching figures for `CN1CCC(Oc2ccc(N3C(=S)N(c4ccc(C#N)c(Cl)c4)C(=O)C3(C)C)cc2)CC1` [Compound 8, 2-Chloro-4-(4,4-dimethyl-3-(4-((1-methylpiperidin-4-yl)oxy)phenyl)-5-oxo-2-thioxoimidazolidin-1-yl)benzonitrile hydrochloride]: 81.3 nM and 103%.
Turning to `Cc1cc(N2C(=O)C3(CCC3)N(c3ccc(OC4CCN(C)CC4)cc3)C2=S)ccc1C#N` [Compound 17, 2-Methyl-4-(5-(4-((1-methylpiperidin-4-yl)oxy)phenyl)-8-oxo-6-thioxo-5,7-diazaspiro[3.4]octan-7-yl)benzonitrile], the Emax amounted to 105%. Under setting [1], the IC50 was 170 nM.
As for `CN1CCC(Oc2ccc(N3C(=S)N(c4ccc(C#N)c(Cl)c4)C(=O)C34CCC4)cc2)CC1` [Compound 22, 2-Chloro-4-(5-(4-((1-methylpiperidin-4-yl)oxy)phenyl)-8-oxo-6-thioxo-5,7-diazaspiro[3.4]octan-7-yl)benzonitrile], the IC50 is 245 nM and the Emax was found to be 98.4%.
The matching figures for `CN1CCC(Oc2ccc(N3C(=S)N(c4ccc(C#N)c(C(F)(F)F)c4)C(=O)C3(C)C)cn2)CC1` [Compound 4, 4-(4,4-Dimethyl-3-(6-((1-methylpiperidin-4-yl)oxy)pyridin-3-yl)-5-oxo-2-thioxoimidazolidin-1-yl)-2-(trifluoromethyl)benzonitrile hydrochloride]: 89.1 nM and 102%.
Turning to `N#Cc1ccc(N2C(=O)C3(CCC3)N(c3ccc(OC4CCNCC4)cc3)C2=S)cc1Cl` [Compound 21, 2-Chloro-4-(8-oxo-5-(4-(piperidin-4-yloxy)phenyl)-6-thioxo-5,7-diazaspiro[3.4]octan-7-yl)benzonitrile], the Emax was found to be 106%. Moreover, the IC50 under setting [1] was 331 nM.
In the same order, the values of `N#Cc1ccc(N2C(=O)C3(CCC3)N(c3cnc(OC4CCNCC4)nc3)C2=S)cc1C(F)(F)F` [Compound 15, 4-(8-Oxo-5-(2-(piperidin-4-yloxy)pyrimidin-5-yl)-6-thioxo-5,7-diazaspiro[3.4]octan-7-yl)-2-(trifluoromethyl)benzonitrile] are 102% and 158 nM.
